Data: EP4603105A1, “PHARMACEUTICAL COMPOSITION CONTAINING CYCLIC COMPOUND HAVING SELECTIVE KRAS INHIBITORY EFFECT AGAINST HRAS AND NRAS” (CHUGAI SEIYAKU KABUSHIKI KAISHA, priority 2022, dated 2024)
Where a SMILES comes first, the peptide text is derived from it. Bridges are numbered along the chain shown (N, C = ends). [ ]: non-standard residue; d: D form. The star is where a group is joined. hPhe(3-Cl-4-CF3) = N[C@@H](CCc1ccc(C(F)(F)F)c(Cl)c1)C(=O)O; NPrPhe(4-CF3) = CCCN[C@@H](Cc1ccc(C(F)(F)F)cc1)C(=O)O; NMeGly(cPent) = CN[C@H](C(=O)O)C1CCCC1; NMeD = CN[C@@H](CC(=O)O)C(=O)O; NMeL = CN[C@@H](CC(C)C)C(=O)O; Morpholide = C1CN(*)CCO1; Ac5c = NC1(C(=O)O)CCCC1; Aze = O=C(O)[C@@H]1CCN1; Sar = CNCC(=O)O

Tests used:
HRAS wild-type protein = HRAS wild-type protein (Homo sapiens, UniProt P01112); test: Binding to HRAS by surface plasmon resonance (SPR), KD and KD ratio to KRAS
In short: (§1)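 Single-cycle kinetics on GDP-loaded biotin-Avi RAS captured to ~100–300 RU; 75 s ascending injections, 100 µL/min, 30°C. HBS pH 7.4 + 10 mM MgCl2/10 µM GDP/4% DMSO. 1:1 fit, KD.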

[1] = molecular target: GDP-bound NRAS wild-type protein (Homo sapiens, UniProt P01111); test: Binding to NRAS by surface plasmon resonance (SPR), KD and KD ratio to KRAS
In short: as §1

[2] = system: human lung cancer strain NCI-H441; format: cell-based
In short: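 Proliferation was scored by […] measured after the reagent was added to cultures kept at 37°C in 5% carbon dioxide.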

[3] = ratio of KD value for HRAS wild-type protein to KD value for KRAS (SPR)
[4] = ratio of KD value for GDP-bound NRAS wild-type protein to KD value for KRAS (SPR)

Sequence of GDP-bound NRAS wild-type protein (P01111 whole entry): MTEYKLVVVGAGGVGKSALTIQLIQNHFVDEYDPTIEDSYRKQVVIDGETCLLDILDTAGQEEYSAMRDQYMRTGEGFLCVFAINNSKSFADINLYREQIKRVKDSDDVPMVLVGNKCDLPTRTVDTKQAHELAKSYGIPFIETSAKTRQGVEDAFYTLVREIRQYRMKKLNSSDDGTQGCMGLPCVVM
Sequence of HRAS wild-type protein (P01112 whole entry): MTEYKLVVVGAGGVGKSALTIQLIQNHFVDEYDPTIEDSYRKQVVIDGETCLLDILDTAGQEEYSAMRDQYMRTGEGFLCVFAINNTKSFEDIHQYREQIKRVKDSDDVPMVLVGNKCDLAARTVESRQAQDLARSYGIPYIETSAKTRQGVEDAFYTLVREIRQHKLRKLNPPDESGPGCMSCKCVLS

| Structure (SMILES) | IC50 [2] | HRAS /KRAS (HRAS wild-type protein; [3]) | NRAS /KRAS [1, 4] | also measured |
| --- | --- | --- | --- | --- |
| CCO[C@@H]1C[C@H]2C(=O)NC3(CC(C)(C)C3)C(=O)N(C)[C@@H](C3CCCC3)C(=O)N(C)[C@H](CC)CC(=O)N(C)[C@@H](CC3CC3)C(=O)N[C@@H]([C@@H](C)CC)C(=O)N(C)CC(=O)N(C)[C@H]3C/C=C\CCN(C3=O)[C@@H](Cc3ccc(C(F)(F)F)cc3)C(=O)N(C)CC(=O)N[C@@H](CCc3cc(F)c(C(F)(F)F)c(F)c3)C(=O)N2C1 [PP1629] | 20.7 nM | B (a compound having 3 or more and less than 10 is denoted as B) | B (a compound having 3 or more and less than 10 is denoted as B) |  |
| CC[C@H](C)[C@@H]1NC(=O)[C@H](CC)N(C)C(=O)C[C@@H](C(=O)N(C)C)N(C)C(=O)[C@H](C2CCCC2)N(C)C(=O)C2(CCCC2)N(C)C(=O)[C@@H]2CCCN2C(=O)[C@H](CCc2cc(F)c(C(F)(F)F)c(F)c2)NC(=O)CN(C)C(=O)[C@H](Cc2ccc(C)cc2)N2CC/C=C\C[C@@H](C2=O)N(C)C(=O)[C@@H]2CCCN2C1=O [PP1811] | 14.3 nM | B (a compound having 3 or more and less than 10 is denoted as B) | A (a compound having 10 or more and less than 20 is denoted as A) |  |
| CC[C@H](C)[C@@H]1NC(=O)[C@H](CC2CC2)N(C)C(=O)C[C@@H](C(=O)N(CC)CC)N(C)C(=O)[C@H](C2CCCC2)N(C)C(=O)C2(CC(C)(C)C2)NC(=O)[C@@H]2C[C@@H](F)CN2C(=O)[C@H](CCc2cc(F)c(C(F)(F)F)c(F)c2)NC(=O)CN(C)C(=O)[C@H](Cc2ccc(C(F)(F)F)cc2)N2CC/C=C\C[C@@H](C2=O)N(C)C(=O)CN(C)C1=O [PP1571] | 6.8 nM | A (a compound having 10 or more and less than 20 is denoted as A) | A (a compound having 10 or more and less than 20 is denoted as A) |  |

More lines, main results first:

| IC50 [2] | Structure (SMILES) | HRAS /KRAS (HRAS wild-type protein; [3]) | NRAS /KRAS [1, 4] | also measured |
| --- | --- | --- | --- | --- |
| 2.5 nM | CCCN(C)C(=O)[C@@H]1CC(=O)N(C)[C@@H](CC)C(=O)N[C@@H]([C@@H](C)CC)C(=O)N(C)CC(=O)N(C)[C@H]2C/C=C\CCN(C2=O)[C@@H](Cc2ccc(C(F)(F)F)cc2)C(=O)N(C)CC(=O)N[C@@H](CCc2cc(F)c(C(F)(F)F)c(F)c2)C(=O)N2C[C@H](OCC)C[C@H]2C(=O)NC2(CCC2)C(=O)N(C)[C@@H](C2CCCC2)C(=O)N1C [PP1699] | A (a compound having 10 or more and less than 20 is denoted as A) | A (a compound having 10 or more and less than 20 is denoted as A) |  |
| 9.5 nM | CCO[C@@H]1C[C@H]2C(=O)NC3(CC(C)(C)C3)C(=O)N(C)[C@@H](C3CCCC3)C(=O)N(C)[C@H](C(=O)N(C)C)CC(=O)N(C)[C@@H](CC(C)C)C(=O)N[C@@H]([C@@H](C)CC)C(=O)N(C)CC(=O)N(C)[C@H]3C/C=C\CCN(C3=O)[C@@H](Cc3ccc(C(F)(F)F)cc3)C(=O)N(C)CC(=O)N[C@@H](CCc3ccc(C(F)(F)F)c(F)c3)C(=O)N2C1 [PP1931] |  |  | HRAS /KRAS (HRAS wild-type protein; ratio of the KD value with respect to HRAS wild-type protein to the KD value with respect to KRAS): B (a compound having 3 or more and less than 10 is denoted as B); NRAS /KRAS ([1]; ratio of the KD value with respect to GDP-bound NRAS wild-type protein to the KD value with respect to KRAS): A (a compound having 10 or more and less than 20 is denoted as A) |
| 57.5 nM | CCO[C@@H]1C[C@H]2C(=O)NC3(CCC3)C(=O)N(C)[C@@H](C3CCCC3)C(=O)N(C)[C@H](C(=O)N(C)CCOC)CC(=O)N(C)[C@@H](C)C(=O)N[C@@H]([C@@H](C)CC)C(=O)N(C)CC(=O)N(C)[C@H]3C/C=C\CCN(C3=O)[C@@H](Cc3ccc(C(F)(F)F)cc3)C(=O)N(C)CC(=O)N[C@@H](CCc3cc(F)c(C(F)(F)F)c(F)c3)C(=O)N2C1 [PP1319] |  |  | HRAS /KRAS (HRAS wild-type protein; ratio of KD with respect to HRAS wild-type protein to KD with respect to KRAS): B (a compound having 3 or more and less than 10 is denoted as B); NRAS /KRAS ([1]; ratio of KD with respect to GDP-bound NRAS wild-type protein to KD with respect to KRAS): A (a compound having 10 or more and less than 20 is denoted as A) |
| 58.1 nM | CCCN1C(=O)CN(C)C(=O)[C@@H]2CCN2C(=O)[C@H]([C@@H](C)CC)NC(=O)[C@H](CC(C)C)N(C)C(=O)C[C@@H](C(=O)N2CCOCC2)N(C)C(=O)[C@H](C2CCCC2)N(C)C(=O)C2(CCCC2)NC(=O)CN(C)C(=O)[C@H](CCc2ccc(C(F)(F)F)c(Cl)c2)NC(=O)CN(C)C(=O)[C@@H]1Cc1ccc(C(F)(F)F)cc1 [PP0314] ([NMeL]I[Aze][Sar][NPrPhe(4-CF3)][Sar][hPhe(3-Cl-4-CF3)][Sar][Ac5c][NMeGly(cPent)][NMeD]-Morpholide; lactam N-11) |  |  | HRAS /KRAS (HRAS wild-type protein; ratio of KD for HRAS wild-type protein to KD for KRAS): C (A compound having a KD ratio of 0.1 or more and less than 3 is denoted as C); NRAS /KRAS ([1]; ratio of KD for GDP-bound NRAS wild-type protein to KD for KRAS): B (a compound having 3 or more and less than 10 is denoted as B) |
